Values joined by “and” are separate entries in the source; they are usually repeats but may differ in a detail not shown here. Identical values can stand only once. Like-named read-outs stand apart in the source and are kept apart here.
Tests used:
[1] = type: physicochemical; details: 1 w
Experimental: For each salt, approximately 5 mg compound was added into an 8 mL glass vial with a multi-hole aluminum foil cap, and kept at 60° C., 40° C./75% RH for 1 week. […] Appearance by visual observation were recorded followed by purity assessment and XPRD data collection on the residual solids.

[2] = type: physicochemical

| SMILES | Final purity ([1]; 40° C./75% RH) | XRPD patterns ([1]; 40° C./75% RH) | Final purity ([1]; 60° C.) | XRPD patterns ([1]; 60° C.) | Final purity ([2]; 1.2 million lux-hrs) | XRPD patterns ([2]; 1.2 million lux-hrs) | Final purity ([2]; Dark control) | XRPD patterns ([2]; Dark control) | XRPD pattern ([1]; 40° C./75% RH) | XRPD pattern ([1]; 60° C.) | XRPD pattern ([2]; 1.2 million lux-hrs) | XRPD pattern ([2]; Dark control) |
| --- | --- | --- | --- | --- | --- | --- | --- | --- | --- | --- | --- | --- |
| COCC1(O)CCC2(C)C(CCC3C2CCC2(C)C(C(=O)Cn4ccnc4)CCC32)C1.O=C(O)c1ccc2ccccc2c1O (stereo not drawn) [1-hydroxy-2-napthoate (Form A)] | 92.64 | Form A | 88.91 | Form A | 92.64 | Form A | 91.96 | Form A |  |  |  |  |
| COC[C@@]1(O)CC[C@@]2(C)[C@@H](CC[C@@H]3[C@@H]2CC[C@]2(C)[C@@H](C(=O)Cn4ccnc4)CC[C@@H]32)C1.O=C1O[C@H]([C@@H](O)CO)C(O)=C1O [Ascorbate (Form A)] | 96.4 | Form A | 95.7 | Form A | 96.8 | Form A | 96.8 | Form A |  |  |  |  |
| COC[C@@]1(O)CC[C@@]2(C)[C@@H](CC[C@@H]3[C@@H]2CC[C@]2(C)[C@@H](C(=O)Cn4ccnc4)CC[C@@H]32)C1.O=S(=O)(O)c1ccccc1 [Besylate (Form A)] | 98.3 | Form A | 98.3 | Form A | 98.7 | Form A | 98.4 | Form A |  |  |  |  |
| COC[C@@]1(O)CC[C@@]2(C)[C@@H](CC[C@@H]3[C@@H]2CC[C@]2(C)[C@@H](C(=O)Cn4ccnc4)CC[C@@H]32)C1 [Compound 1, 3α-Hydroxy-3β-methoxymethyl-21-(1′-imidazolyl)-5α-pregnan-20-one] | 98.2 and 99.1 and 98.23 | Pattern A | 98.2 and 99.3 and 98.15 | Pattern A | 97.9 and 99.2 and 97.92 | Pattern A | 98.3 and 99.1 | Pattern A | Pattern A | Pattern A | Pattern A | Pattern A |
| COCC1(O)CCC2(C)C(CCC3C2CCC2(C)C(C(=O)Cn4ccnc4)CCC32)C1.O=C(O)C(Cl)Cl (stereo not drawn) [Dichloroacetate (Form A)] | 98.0 | Form A | 96.3 | Form A | 96.4 | Form A | 97.3 | Form A |  |  |  |  |
| CCS(=O)(=O)O.COCC1(O)CCC2(C)C(CCC3C2CCC2(C)C(C(=O)Cn4ccnc4)CCC32)C1 (stereo not drawn) [Ethanesulfonate (Form A)] | 98.0 | Form A | 98.2 | Form A | 97.7 | Form A | 97.4 | Form A |  |  |  |  |
| COCC1(O)CCC2(C)C(CCC3C2CCC2(C)C(C(=O)Cn4ccnc4)CCC32)C1.O=C(O)c1cc(O)ccc1O (stereo not drawn) [Gentisate salt (Form A)] | 97.6 | Form A | 97.0 | Form A | 96.0 | Form A | 97.6 | Form A |  |  |  |  |
| COCC1(O)CCC2(C)C(CCC3C2CCC2(C)C(C(=O)Cn4ccnc4)CCC32)C1.O=CC(O)C(O)C(O)C(O)C(=O)O (stereo not drawn) [Glucuronate (Form A)] | 98.0 | Form A | 96.7 | Form A | 97.5 | Form A | 97.5 | Form A |  |  |  |  |
| COC[C@@]1(O)CC[C@@]2(C)[C@@H](CC[C@@H]3[C@@H]2CC[C@]2(C)[C@@H](C(=O)Cn4ccnc4)CC[C@@H]32)C1.Cl [Hydrochloride (Form A)] | 99.4 | Form A | 99.5 | Form A | 99.5 | Form A | 99.5 | Form A |  |  |  |  |
| COCC1(O)CCC2(C)C(CCC3C2CCC2(C)C(C(=O)Cn4ccnc4)CCC32)C1.Cl (stereo not drawn) [Hydrochloride (Form B)] | 100.0 |  | 100.0 | Form B | 98.2 | Form B | 98.59 | Form B |  |  |  |  |
| COCC1(O)CCC2(C)C(CCC3C2CCC2(C)C(C(=O)Cn4ccnc4)CCC32)C1.Cl (stereo not drawn) [Hydrochloride (Form C)] | 100.0 | Form C | 98.6 | Form C | 100.0 | Form C | 99.2 | Form C |  |  |  |  |
| COCC1(O)CCC2(C)C(CCC3C2CCC2(C)C(C(=O)Cn4ccnc4)CCC32)C1.O=S(=O)(O)CCO (stereo not drawn) [Isethionate (Form A)] | 98.5 | Form A | 98.7 | Form A | 98.9 | Form A | 98.8 | Form A |  |  |  |  |
| COCC1(O)CCC2(C)C(CCC3C2CCC2(C)C(C(=O)Cn4ccnc4)CCC32)C1.O=C(O)C(O)C(O)C(=O)O (stereo not drawn) [L(+)-Tartrate (Form A)] | 99.3 | Form A | 99.3 | Form A | 99.4 | Form A | 99.2 | Form A |  |  |  |  |
| COC[C@@]1(O)CC[C@@]2(C)[C@@H](CC[C@@H]3[C@@H]2CC[C@]2(C)[C@@H](C(=O)Cn4ccnc4)CC[C@@H]32)C1.O=C(O)C(O)C(O)C(=O)O [L(+)-Tartrate (Form B)] | 99.2 | Form B | 99.2 | Form B | 99.3 | Form B | 99.2 | Form B |  |  |  |  |
| COCC1(O)CCC2(C)C(CCC3C2CCC2(C)C(C(=O)Cn4ccnc4)CCC32)C1.O=C(O)CC(O)C(=O)O [L-Malate (Form A)] | 99.2 | Form A | 99.6 | Form A | 99.3 | Form A | 99.3 | Form A |  |  |  |  |
| COC[C@@]1(O)CC[C@@]2(C)[C@@H](CC[C@@H]3[C@@H]2CC[C@]2(C)[C@@H](C(=O)Cn4ccnc4)CC[C@@H]32)C1.O=C(O)C[C@H](O)C(=O)O [L-Malate (Form B)] | 98.5 |  | 97.8 | Form B | 97.6 | Form B | 97.5 | Form B |  |  |  |  |
| COC[C@@]1(O)CC[C@@]2(C)[C@@H](CC[C@@H]3[C@@H]2CC[C@]2(C)[C@@H](C(=O)Cn4ccnc4)CC[C@@H]32)C1.O=C(O)CC(=O)O [Malonate (Form A)] | 98.5 | Form A | 97.0 | Form A | 98.2 | Form A | 99.0 | Form A |  |  |  |  |
